Measurements: US20190255144A1, “SPECIFIC OLIGOPEPTIDES AS ANTI-ANGIOGENIC DRUGS” (NEURONAX, priority 2014, published 2019)
Values joined by “and” are separate entries in the source; they are usually repeats but may differ in a detail not shown here. Identical values can stand only once.

Experiments:
[1] = test system: HUVECs or HBMECs; assay: Proliferation of endothelial cells; type: cell-based; settings: in vitro
[2] = Toxicity on injection; type: in vivo; settings: injections of 20 mg/kg
[3] = test system: HBMEC cells; assay: ELISA Cell Death test for induction of the apoptosis on the HBMEC cells; type: cell-based, human; settings: basal medium
Procedure: The apoptosis process is accompanied by the fragmentation of DNA and thus generates soluble nucleosomes (cytoplasmic histones associated with fragmented DNA), which can be metered by an immunoenzymatic method, ELISA Cell Death Plus (Enzyme-Linked ImmunoSorbent Assay) Kit (Roche Molecular Diagnostics, France) according to the recommendations of the supplier. The HBMEC cells were inoculated in a 24-well plate at the density of 5.10^3 cells/wells and allowed to stand for 24 hours. The cells are cultivated in a basal medium, i.e., in the absence of growth factors, which is changed before they are exposed to various treatments for 24 hours. They are then recovered and then centrifuged with 200 g for 5 minutes. The cells are then counted, and then adjusted to 3.10^4 cells/mL in PBS. A new centrifuging with 200 g is carried out for 10 minutes. The supernatant is removed, and the cell pellet is taken up in 200 μl of lysis buffer before incubation for 30 minutes at ambient temperature. After a new centrifuging for 10 minutes at 1,400 rpm, 20 μL of supernatant is distributed in wells coated with streptavidin and each condition is carried out in duplicate. 80 μL of the immunoreagent solution is added into each well. […] The reaction is then halted by adding 100 μL of ABTS stop solution, and the results are then analyzed using a 405-nm plaque reader. […]

[4] = test system: HBMECs; assay: Migration of endothelial cells; type: cell-based
[5] = test system: tumors from subcutaneous heterotopic grafts; assay: Tumors from subcutaneous heterotopic grafts in nude mouse: Ki67, CD31, tumor volume; type: in vivo; settings: for Tumor Volume D0: day 0 after injection of cancer cells, treatment in hydrogel injected on 21st day; for Tumor Volume D5: day 5 after injection of cancer cells; for Tumor Volume D5 / Tumor Volume D12 / Tumor Volume D17 / Tumor Volume D19: before treatment (21st day); for Tumor Volume D12: day 12 after injection of cancer cells; for Tumor Volume D17: day 17 after injection of cancer cells; for Tumor Volume D19: day 19 after injection of cancer cells; for Tumor Volume D21: day 21 after injection of cancer cells, day of treatment injection in hydrogel; for Tumor Volume D23: day 23 after injection of cancer cells, 48 hours after treatment in hydrogel; for Ki67 labeling quantification, Mean Center / CD31 labeling quantification, Center: tumor center
Excerpt: FIGS. 7A to 7E show the results of the analysis of the activity of the oligopeptide according to the invention on the proliferation, the vascularization, and the tumor growth in nude mice: • The images A, B and C of FIG. 7A show the immunolabeling of Ki-67 on tumor sections treated by H2O, TSP-1 or the oligopeptide according to the invention respectively. • The images D, E and F of FIG. 7A are magnifications (2×) of FIGS. A, B and C. • The images G, H and I of FIG. 7A represent the immunolabeling of CD31 on tumor sections that are treated by H2O, TSP-1 or the oligopeptide according to the invention respectively (the bars of the scale correspond to 500 μm). • The images J, K and L of FIG. 7A are magnifications (2×) of the images G, H and I.
The Ki-67 labeling was quantified under the various conditions using imageJ software, and comparisons between the center and the edge of tumors and between the conditions were carried out (FIG. 7B) by analysis of variances (ANOVA test). A value of p<0.05 is considered to be significant. * p<0.05 that is compared to the center of the same tumors; $ p<0.05 and $$ p<0.01 that is compared to the control. • The CD31 labeling was quantified under the various conditions using image J software, and comparisons between the center and the edge of tumors and between the conditions were carried out (FIG. 7C) by analysis of variances (ANOVA test). […] The injections of the treatments (hydrogel by itself, TSP-1 and the oligopeptide according to the invention (NX) were carried out on the 21st day (black arrow)). The comparison of the tumor sizes in comparison to the controls was carried out by analysis of variances (ANOVA test). ** p<0.01; *** p<0.001.
The experimentation on the mouse confirms the results that are obtained with the CAM model. In this case, the tumors were obtained from subcutaneous heterotopic grafts in the area of the leg of a nude mouse (FIGS. 7B, 7C and 7E).
Tables 6, 7 and 8: These tables correspond to the raw values that are obtained during various analyses conducted on the tumors that are treated in vivo. Analysis of the proliferation (Ki67 labeling quantification) (F), analysis of the vascularization (CD31 labeling quantification) (G) and analysis of the tumor growth as a function of time (measurement of the tumor volume) (H). “con,” “CTRL” and “hydrogel” treatments are control conditions, “TSP” and “TSP1” are the treatments with thrombospondin 1 (TSP-1), and NX is the treatment with the peptide according to the invention

[6] = nude mouse tumor sections, tumor edge

Row | Substance | Proliferation of HUVECs or HBMECs [1] | Toxicity [2] | Protection of HBMEC from apoptosis (in words) [3] | Migration of the HBMECs induced by glioblastoma tumor cells ([4]; brought into contact with the U87-MG or HBMECs) | Migration in the presence of an angiogenic factor ([4]; in the presence of VEGF or bFGF) | Cell proliferation, Ki-67 labeling (in words) ([5]; nude mice tumors) | CD31 labeling (in words) ([5]; nude mice tumors, periphery, compared with control) | Tumor volume change (in words) ([5]; nude mice, 48 hours after the treatment) | Tumor Volume D0 ([5]; nude mice) [mm^3] | Tumor Volume D5 ([5]; nude mice) [mm^3] | Tumor Volume D12 ([5]; nude mice) [mm^3] | Tumor Volume D17 ([5]; nude mice) [mm^3] | Tumor Volume D19 ([5]; nude mice) [mm^3] | Tumor Volume D21 ([5]; nude mice) [mm^3] | Tumor Volume D23 ([5]; nude mice) [mm^3] | Ki67 labeling quantification, Mean Center ([5]; nude mouse tumor sections) | CD31 labeling quantification, Center ([5]; nude mouse tumor sections, raw values) | Ki67 labeling quantification, Mean Edge [5, 6] | CD31 labeling quantification, Center ([5]; nude mouse tumor sections, raw values, listed as TSP1) | CD31 labeling quantification, Edge ([5]; nude mouse tumor sections, tumor edge, raw values, listed as TSP1)
1 | —W—S-G-W—S—S—C—S—R—S—C-G- (WSGWSSCSRSCG; Oligopeptide derived from SCO-Spondin) [NX] | does not modulate the proliferation | no toxicity | protects the HBMEC human endothelial cells from the apoptosis at a level similar to the VEGF | inhibits | promotes the migration | decrease in the Ki-67 labeling | reduction in the CD31 labeling on the periphery | decrease in volume | 0 | 46.46 | 39.04 | 70.6 | 78.82 | 135.6 | 68.03 | 181.7 | 26 and 40 and 28 and 38 | 49.75 |  | 
2 | thrombospondin 1 [TSP, reference compound] |  |  | this effect is not observed |  |  |  |  |  | 0 | 33.55 | 29.93 | 49.88 | 81.07 | 112.5 | 101.9 | 200.3 |  | 228.2 | 66 and 53 and 63 and 56 | 53 and 42 and 39 and 45
